Measurements reported in ChEMBL document CHEMBL1909046, “DrugMatrix in vitro pharmacology data”.

What was measured:
[1] = molecular target: T1, Neuropeptide Y receptor type 1 (Homo sapiens, UniProt P25929); type: cell membranes, Membrane; details: sk-n-mc; further: in other assays of this panel Not Active means under 50% inhibition at 10 µM
T1 sequence (P25929 whole entry): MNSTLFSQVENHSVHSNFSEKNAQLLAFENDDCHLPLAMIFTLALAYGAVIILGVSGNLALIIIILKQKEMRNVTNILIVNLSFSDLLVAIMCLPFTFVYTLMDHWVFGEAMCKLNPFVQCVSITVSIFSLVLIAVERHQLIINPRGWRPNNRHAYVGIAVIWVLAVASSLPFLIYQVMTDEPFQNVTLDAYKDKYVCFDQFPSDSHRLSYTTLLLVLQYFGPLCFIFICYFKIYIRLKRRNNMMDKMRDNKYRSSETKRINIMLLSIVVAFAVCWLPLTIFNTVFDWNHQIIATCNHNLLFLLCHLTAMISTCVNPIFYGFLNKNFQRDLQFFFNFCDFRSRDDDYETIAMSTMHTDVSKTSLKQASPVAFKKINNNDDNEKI

[2] = molecular target: T2, Amine oxidase [flavin-containing] A (Homo sapiens, UniProt P21397); test: DRUGMATRIX: Monoamine Oxidase MAO-A enzyme inhibition (substrate: Kynuramine); set-up: species or system BTI-TN-5B1-4; details: bti-tn-5b1-4; Not Active = under 50% inhibition at 10 µM
T2 sequence (P21397 whole entry): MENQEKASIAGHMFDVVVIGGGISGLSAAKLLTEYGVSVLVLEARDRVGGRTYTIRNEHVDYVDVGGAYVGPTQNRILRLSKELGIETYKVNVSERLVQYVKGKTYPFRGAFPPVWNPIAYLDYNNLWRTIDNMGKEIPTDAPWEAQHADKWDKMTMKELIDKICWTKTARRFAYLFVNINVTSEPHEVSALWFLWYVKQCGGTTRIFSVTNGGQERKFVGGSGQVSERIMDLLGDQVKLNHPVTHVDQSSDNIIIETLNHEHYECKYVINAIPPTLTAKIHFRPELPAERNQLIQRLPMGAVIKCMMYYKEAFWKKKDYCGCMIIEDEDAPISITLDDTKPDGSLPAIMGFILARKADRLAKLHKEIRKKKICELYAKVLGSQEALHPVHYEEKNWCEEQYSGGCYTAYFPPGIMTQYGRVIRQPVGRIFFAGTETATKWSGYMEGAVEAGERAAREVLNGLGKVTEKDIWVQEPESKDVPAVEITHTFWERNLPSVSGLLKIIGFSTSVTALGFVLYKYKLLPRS

[3] = molecular target: T3, Vasoactive intestinal polypeptide receptor 1 (Homo sapiens, UniProt P32241); type: cell membranes, Membrane; details: ht-29; further: in other assays of this panel Not Active means under 50% inhibition at 10 µM
T3 sequence (P32241 whole entry): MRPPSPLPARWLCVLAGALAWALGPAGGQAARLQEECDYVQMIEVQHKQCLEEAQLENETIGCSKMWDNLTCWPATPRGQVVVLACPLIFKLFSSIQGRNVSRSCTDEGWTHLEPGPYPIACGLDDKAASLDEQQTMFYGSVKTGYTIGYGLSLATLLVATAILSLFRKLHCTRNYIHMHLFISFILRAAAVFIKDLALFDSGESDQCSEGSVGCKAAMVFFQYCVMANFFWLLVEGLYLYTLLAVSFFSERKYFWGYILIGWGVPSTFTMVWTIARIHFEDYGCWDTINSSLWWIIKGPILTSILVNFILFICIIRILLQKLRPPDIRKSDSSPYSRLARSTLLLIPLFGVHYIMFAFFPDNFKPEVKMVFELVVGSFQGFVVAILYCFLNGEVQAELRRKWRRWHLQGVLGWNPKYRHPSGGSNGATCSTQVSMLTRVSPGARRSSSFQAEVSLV

[4] = molecular target: Beta-1 adrenergic receptor (Homo sapiens, UniProt P08588); test: DRUGMATRIX: Adrenergic beta1 radioligand binding (ligand: [125I] Cyanopindolol); type: cell membranes, CHO-K1, Membrane; details: Not Active = under 50% inhibition at 10 µM
[5] = molecular target: T4, C-X-C chemokine receptor type 1 (Homo sapiens, UniProt P25024); further: in other assays of this panel Not Active means under 50% inhibition at 10 µM
T4 sequence (P25024 whole entry): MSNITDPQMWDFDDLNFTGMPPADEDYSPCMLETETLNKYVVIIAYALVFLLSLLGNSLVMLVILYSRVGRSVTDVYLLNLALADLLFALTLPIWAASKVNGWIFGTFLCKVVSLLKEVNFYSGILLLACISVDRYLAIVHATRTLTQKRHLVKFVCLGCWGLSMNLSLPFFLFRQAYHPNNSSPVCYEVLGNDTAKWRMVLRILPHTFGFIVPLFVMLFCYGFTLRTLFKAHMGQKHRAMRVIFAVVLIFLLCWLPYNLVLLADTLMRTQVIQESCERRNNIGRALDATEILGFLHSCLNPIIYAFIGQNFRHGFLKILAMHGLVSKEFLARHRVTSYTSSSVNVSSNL

[6] = DRUGMATRIX: Interleukin IL-1 radioligand binding (ligand: [125I] interleukin 1beta); type: cell membranes, Membrane; details: nih3t3; Not Active = under 50% inhibition at 10 µM
[7] = DRUGMATRIX: Glutamate, AMPA radioligand binding (ligand: [3H] AMPA); type: cell membranes, Rattus norvegicus, Wistar, Cerebral cortex, Membrane; details: Not Active = under 50% inhibition at 10 µM
Cytochrome P450 3A4 = Cytochrome P450 3A4 (Homo sapiens, UniProt P08684); details: bti-tn-5b1-4; further: in other assays of this panel Not Active means under 50% inhibition at 10 µM
Cytochrome P450 3A4, sequence (P08684 whole entry): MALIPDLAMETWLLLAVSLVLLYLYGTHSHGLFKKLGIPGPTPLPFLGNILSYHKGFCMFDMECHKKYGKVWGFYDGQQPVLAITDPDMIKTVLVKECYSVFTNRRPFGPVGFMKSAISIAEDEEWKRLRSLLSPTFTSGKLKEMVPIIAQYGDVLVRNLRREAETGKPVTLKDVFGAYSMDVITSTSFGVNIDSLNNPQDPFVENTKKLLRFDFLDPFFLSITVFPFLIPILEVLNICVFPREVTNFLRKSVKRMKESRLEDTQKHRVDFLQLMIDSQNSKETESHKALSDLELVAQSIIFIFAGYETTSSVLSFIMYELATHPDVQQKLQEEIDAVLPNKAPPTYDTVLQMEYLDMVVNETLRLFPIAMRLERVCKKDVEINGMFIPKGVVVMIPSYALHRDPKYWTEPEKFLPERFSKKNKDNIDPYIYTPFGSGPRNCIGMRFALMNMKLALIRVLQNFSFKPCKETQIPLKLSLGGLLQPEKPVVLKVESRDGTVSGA

Beta-1 adrenergic receptor, sequence (P08588 whole entry): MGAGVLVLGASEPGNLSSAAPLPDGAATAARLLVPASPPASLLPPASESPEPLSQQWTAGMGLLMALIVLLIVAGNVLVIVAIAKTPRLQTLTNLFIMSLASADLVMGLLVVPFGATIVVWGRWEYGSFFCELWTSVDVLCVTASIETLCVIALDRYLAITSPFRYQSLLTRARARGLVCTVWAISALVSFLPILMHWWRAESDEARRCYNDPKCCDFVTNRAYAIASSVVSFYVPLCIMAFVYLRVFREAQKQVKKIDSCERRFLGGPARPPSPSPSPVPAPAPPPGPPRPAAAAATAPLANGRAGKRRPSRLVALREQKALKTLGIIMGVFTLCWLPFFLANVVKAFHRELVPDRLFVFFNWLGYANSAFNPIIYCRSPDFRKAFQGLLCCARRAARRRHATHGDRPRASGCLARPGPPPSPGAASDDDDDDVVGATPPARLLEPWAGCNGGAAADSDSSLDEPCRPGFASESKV

SMILES	IC50 [1]	IC50 [2]	IC50 [3]	IC50 ([4]; cho-k1)	IC50 [5]	IC50 [6]	Ki [6]	IC50 [7]	Ki [7]	IC50 (Cytochrome P450 3A4)	Ki (Cytochrome P450 3A4)	IC50 ([4]; read-out: IC50) [µM]	Ki ([4]; read-out: Ki) [µM]
CCOC(=O)N1CCC(=C2c3ccc(Cl)cc3CCc3cccnc32)CC1 [LORATADINE]	Not Active	Not Active	Not Active	Not Active	Not Active	Not Active	Not Active	Not Active	Not Active				
Cn1ccnc1S [METHIMAZOLE]	Not Active	Not Active	Not Active	Not Active	Not Active	Not Active	Not Active	Not Active	Not Active				
CC[C@@H](CO)NC(=O)[C@@H]1C=C2c3cccc4[nH]cc(c34)C[C@H]2N(C)C1 [METHYLERGONOVINE]	Not Active	Not Active	Not Active		Not Active	Not Active	Not Active	Not Active	Not Active	Not Active	Not Active		
COc1nc(C)nc(Cl)c1NC1=NCCN1 [MOXONIDINE]	Not Active	Not Active	Not Active	Not Active	Not Active	Not Active	Not Active	Not Active	Not Active	Not Active	Not Active		
COc1c(C)c2c(c(O)c1C/C=C(\C)CCC(=O)O)C(=O)OC2 [MYCOPHENOLIC ACID]	Not Active	Not Active	Not Active	Not Active	Not Active	Not Active	Not Active	Not Active	Not Active	Not Active	Not Active		
CN1CCN(CCCN2c3ccccc3Sc3ccc(Cl)cc32)CC1 [PROCHLORPERAZINE]	Not Active	Not Active	Not Active	Not Active	Not Active					Not Active	Not Active		
CO[C@H]1/C=C/O[C@@]2(C)Oc3c(C)c(O)c4c(O)c(c(/C=N/N5CCN(C)CC5)c(O)c4c3C2=O)NC(=O)/C(C)=C\C=C\[C@H](C)[C@H](O)[C@@H](C)[C@@H](O)[C@@H](C)[C@H](OC(C)=O)[C@@H]1C [RIFAMPIN]	Not Active	Not Active	Not Active	Not Active	Not Active	Not Active	Not Active	Not Active	Not Active				
Nc1nc2ccc(OC(F)(F)F)cc2s1 [RILUZOLE]	Not Active	Not Active	Not Active	Not Active	Not Active	Not Active	Not Active	Not Active	Not Active				
Cc1nc2n(c(=O)c1CCN1CCC(c3noc4cc(F)ccc34)CC1)CCCC2 [RISPERIDONE]	Not Active	Not Active	Not Active	Not Active	Not Active								
CC/C(=C(\c1ccccc1)c1ccc(OCCN(C)C)cc1)c1ccccc1 [TAMOXIFEN]	Not Active	Not Active	Not Active		Not Active					Not Active	Not Active	17.3	9.98
CC(C)N1CCN(c2ccc(OCC3COC(Cn4cncn4)(c4ccc(Cl)cc4Cl)O3)cc2)CC1 (stereo unspecified) [TERCONAZOLE]	Not Active	Not Active	Not Active		Not Active			Not Active	Not Active	Not Active	Not Active		
